Assay results taken from ChEMBL document CHEMBL1137893, “Active site inhibitors of HCV NS5B polymerase. The development and pharmacophore of 2-thienyl-5,6-dihydroxypyrimidine-4-carboxylic acid” (Bioorg Med Chem Lett, 2004).

molecular target: RNA-directed RNA polymerase (Hepacivirus hominis) (UniProt O39930); test: Percentage inhibition of RNA dependent RNA polymerase Nonstructural protein 5B of hepatitis C virus at 50 uM
Sequence (O39930 1-591): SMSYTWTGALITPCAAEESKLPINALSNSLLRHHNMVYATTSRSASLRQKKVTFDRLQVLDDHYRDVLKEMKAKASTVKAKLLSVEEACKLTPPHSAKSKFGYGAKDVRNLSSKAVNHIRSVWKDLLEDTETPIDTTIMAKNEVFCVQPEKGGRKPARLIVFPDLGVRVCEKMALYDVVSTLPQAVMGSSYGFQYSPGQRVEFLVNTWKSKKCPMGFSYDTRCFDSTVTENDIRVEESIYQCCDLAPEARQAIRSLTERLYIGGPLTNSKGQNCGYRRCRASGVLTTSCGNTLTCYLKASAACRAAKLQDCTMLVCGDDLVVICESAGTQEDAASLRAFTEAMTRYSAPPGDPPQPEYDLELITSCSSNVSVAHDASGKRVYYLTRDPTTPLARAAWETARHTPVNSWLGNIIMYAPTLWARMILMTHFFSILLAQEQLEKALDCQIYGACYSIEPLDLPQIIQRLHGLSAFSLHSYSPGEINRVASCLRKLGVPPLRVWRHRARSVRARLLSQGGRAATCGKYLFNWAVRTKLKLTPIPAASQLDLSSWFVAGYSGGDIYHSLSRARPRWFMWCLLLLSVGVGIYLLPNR

| Structure (SMILES) | inhibition [%] |
| --- | --- |
| O=C(O)c1nc(-c2ccccn2)nc(O)c1O | < 30 |
| O=C(O)c1nc(-c2cccs2)ncc1O | < 30 |
| O=C(O)c1[nH]c(-c2cccs2)nc2ncnc1-2 | < 30 |
| O=C(NS(=O)(=O)Cc1ccccc1)c1nc(-c2cccs2)nc(O)c1O | < 30 |

The next lines start with the values.

| inhibition [%] | Structure (SMILES) |
| --- | --- |
| < 30 | Oc1nc(-c2cccs2)nc(-c2nn[nH]n2)c1O |
| < 30 | COC(=O)c1nc(-c2cccs2)nc(O)c1O |
| < 30 | O=P(O)(O)c1nc(-c2cccs2)nc(O)c1O |
| < 30 | CS(=O)(=O)Nc1nc(-c2cccs2)nc(C(=O)O)c1O |

molecular target: RNA-directed RNA polymerase (Hepacivirus hominis, UniProt O39930); test: inhibitory concentration against RNA dependent RNA polymerase Nonstructural protein 5B of hepatitis C virus
Sequence (O39930 whole entry): as the sequence (O39930 1-591) above

| Structure (SMILES) | IC50 [µM] |
| --- | --- |
| O=C(O)c1nc(-c2ccccc2)nc(O)c1O | 30 |
| O=C(NS(=O)(=O)C(F)(F)F)c1nc(-c2cccs2)[nH]c(=O)c1O | 6.2 |
| Cn1c(-c2cccs2)nc(C(=O)O)c(O)c1=O | 4.2 |
| O=C(O)c1nc(-c2cccs2)nc(O)c1O | 2.6 |
| O=C(O)C(=O)/C=C(\O)c1ccccc1 | 5.7 |

More lines, now with the values ahead:

| IC50 [µM] | Structure (SMILES) |
| --- | --- |
| 49 | CS(=O)(=O)c1nc(-c2cccs2)nc(C(=O)O)c1O |
| 50 | COc1nc(-c2cccs2)nc(C(=O)O)c1O |
